Data taken from patent US12240904B2, “Use of anti-PD-1 antibody in combination with famitinib in preparation of drug for treating tumors” (Jiangsu Hengrui Medicine Co., Ltd., priority 2018, dated 2025).
Like-named read-outs stand apart in the source and are kept apart here.

Assays:
[1] = system: kidney cancer; details: Compound B 25 mg, q.d., alone; cited from earlier work
[2] = clinical study, pharmacokinetics of Compound B; assay type: in vivo, human; details: for AUC: human, blood, oral
Text: In the present disclosure, “AUC” refers to the area surrounded by the pharmacokinetic blood drug concentration curve versus time axis. This parameter is an important indicator for evaluating the degree of drug absorption, reflecting the exposure profiles of the drug in vivo. Since the blood drug concentration in pharmacokinetic studies can only be observed up to a certain time point t, AUC can be expressed in the following two means: AUC (0-t) and AUC (0-∞), wherein AUC (0-t) is derived from the trapezoidal area, and AUC (0-∞) is calculated by the formula: AUC (0-∞)=AUC (0-t)+end point concentration/end point elimination rate. The AUC mentioned in the present application refers to the averaged AUC0-24 of the patient reaching a steady state after a single administration or multiple administrations, preferably the averaged AUC0-24 of the patient reaching a steady state after multiple administrations (i.e. AUCss).
Compound A: intravenous injection, 200 mg, once every 3 weeks, 1 cycle every 3 weeks; Compound B: 20 mg or 15 mg, oral administration, once a day.
Among the 12 subjects who participated in the pharmacokinetic study, PK blood was collected from 9 subjects.

[3] = target: T1, Mer (Homo sapiens, UniProt Q12866); experiment: IC50Profiler in vitro kinase activity; assay type: biochemical; details: ATP 10 μM
T1 construct: purchased
T1 sequence (Q12866 21-999): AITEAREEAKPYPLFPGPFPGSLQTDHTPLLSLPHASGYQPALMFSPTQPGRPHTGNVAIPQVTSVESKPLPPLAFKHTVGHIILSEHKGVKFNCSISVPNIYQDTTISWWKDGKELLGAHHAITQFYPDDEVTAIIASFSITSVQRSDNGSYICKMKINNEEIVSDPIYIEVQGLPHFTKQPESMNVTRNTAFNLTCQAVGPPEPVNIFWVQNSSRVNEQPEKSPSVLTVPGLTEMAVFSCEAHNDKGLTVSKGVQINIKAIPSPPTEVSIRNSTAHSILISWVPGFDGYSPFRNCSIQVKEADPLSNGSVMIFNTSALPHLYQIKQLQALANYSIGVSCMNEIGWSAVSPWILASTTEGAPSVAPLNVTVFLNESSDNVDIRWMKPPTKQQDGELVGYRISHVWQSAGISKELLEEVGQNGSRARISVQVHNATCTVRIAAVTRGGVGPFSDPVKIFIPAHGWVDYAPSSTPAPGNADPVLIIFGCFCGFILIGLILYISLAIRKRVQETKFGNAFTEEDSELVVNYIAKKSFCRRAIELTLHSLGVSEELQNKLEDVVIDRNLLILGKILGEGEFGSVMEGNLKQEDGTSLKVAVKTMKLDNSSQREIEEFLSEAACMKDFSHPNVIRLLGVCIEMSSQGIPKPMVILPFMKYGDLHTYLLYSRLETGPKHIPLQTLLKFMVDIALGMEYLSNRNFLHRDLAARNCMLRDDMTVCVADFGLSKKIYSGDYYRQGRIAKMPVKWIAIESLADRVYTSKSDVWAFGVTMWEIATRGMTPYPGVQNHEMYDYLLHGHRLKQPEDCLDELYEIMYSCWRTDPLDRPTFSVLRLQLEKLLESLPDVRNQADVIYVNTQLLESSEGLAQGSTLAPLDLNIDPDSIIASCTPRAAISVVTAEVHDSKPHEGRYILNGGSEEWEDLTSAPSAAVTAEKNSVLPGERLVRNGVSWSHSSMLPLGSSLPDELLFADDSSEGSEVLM
Method: (§1) (1) Experimental Procedures for IC50Profiler™
(§2) Appropriate amounts of kinase and peptide substrates were separately mixed with different concentrations of famitinib malate (1 nM, 3 nM, 10 nM, 30 nM, 100 nM, 300 nM, 1 μM, 3 μM, 10 μM) and incubated for 60 min at room temperature. Magnesium acetate and [gamma-33P]-ATP were added to initiate the kinase-catalyzed reaction, and the reaction was carried out at room temperature for 40 minutes. After the reaction was finished, 3% phosphoric acid solution was added to terminate the reaction. 10 μL of the reaction mixture was taken and added onto a P30 filter membrane to be filtered. The membrane was washed with 75 mM phosphate buffer for 3 times and washed once with methanol to remove free [gamma-33P]-ATP. The protein was fixed, and the membrane was dried. The liquid scintillation analyzer was used to determine the amount of peptide substrate by counting the amount of 33P.

[4] = target: T2, Axl (Homo sapiens, UniProt P30530); experiment: IC50Profiler in vitro kinase activity; assay type: biochemical; details: ATP 10 μM
T2 construct: purchased
T2 sequence (P30530 26-894): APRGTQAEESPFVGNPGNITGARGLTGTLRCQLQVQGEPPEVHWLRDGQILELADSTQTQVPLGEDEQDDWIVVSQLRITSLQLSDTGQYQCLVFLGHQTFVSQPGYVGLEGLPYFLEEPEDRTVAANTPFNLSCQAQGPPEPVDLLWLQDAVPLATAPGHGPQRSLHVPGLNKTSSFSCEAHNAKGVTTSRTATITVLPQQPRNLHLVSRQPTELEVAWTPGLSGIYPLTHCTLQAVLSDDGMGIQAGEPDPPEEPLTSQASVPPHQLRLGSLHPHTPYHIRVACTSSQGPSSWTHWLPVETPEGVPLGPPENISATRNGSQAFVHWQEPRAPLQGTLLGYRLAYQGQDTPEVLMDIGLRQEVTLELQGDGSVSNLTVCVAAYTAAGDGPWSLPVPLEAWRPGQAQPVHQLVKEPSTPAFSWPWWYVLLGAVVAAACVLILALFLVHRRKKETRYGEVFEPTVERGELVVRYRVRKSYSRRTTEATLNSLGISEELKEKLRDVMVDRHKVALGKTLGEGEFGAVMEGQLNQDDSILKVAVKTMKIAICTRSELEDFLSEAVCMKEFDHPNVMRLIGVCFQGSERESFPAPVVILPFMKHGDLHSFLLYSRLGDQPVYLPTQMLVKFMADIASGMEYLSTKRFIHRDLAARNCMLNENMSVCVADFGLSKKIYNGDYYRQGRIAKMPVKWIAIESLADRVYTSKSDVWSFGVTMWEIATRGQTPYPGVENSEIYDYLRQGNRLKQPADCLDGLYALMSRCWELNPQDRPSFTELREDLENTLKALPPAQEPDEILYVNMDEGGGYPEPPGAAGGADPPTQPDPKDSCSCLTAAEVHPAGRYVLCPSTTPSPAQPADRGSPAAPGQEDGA
Method: as §1, §2

[5] = target: T3, TYRO3 (Rse) (Homo sapiens, UniProt Q06418); experiment: IC50Profiler in vitro kinase activity; assay type: biochemical; details: ATP 10 μM
T3 construct: purchased
T3 sequence (Q06418 41-890): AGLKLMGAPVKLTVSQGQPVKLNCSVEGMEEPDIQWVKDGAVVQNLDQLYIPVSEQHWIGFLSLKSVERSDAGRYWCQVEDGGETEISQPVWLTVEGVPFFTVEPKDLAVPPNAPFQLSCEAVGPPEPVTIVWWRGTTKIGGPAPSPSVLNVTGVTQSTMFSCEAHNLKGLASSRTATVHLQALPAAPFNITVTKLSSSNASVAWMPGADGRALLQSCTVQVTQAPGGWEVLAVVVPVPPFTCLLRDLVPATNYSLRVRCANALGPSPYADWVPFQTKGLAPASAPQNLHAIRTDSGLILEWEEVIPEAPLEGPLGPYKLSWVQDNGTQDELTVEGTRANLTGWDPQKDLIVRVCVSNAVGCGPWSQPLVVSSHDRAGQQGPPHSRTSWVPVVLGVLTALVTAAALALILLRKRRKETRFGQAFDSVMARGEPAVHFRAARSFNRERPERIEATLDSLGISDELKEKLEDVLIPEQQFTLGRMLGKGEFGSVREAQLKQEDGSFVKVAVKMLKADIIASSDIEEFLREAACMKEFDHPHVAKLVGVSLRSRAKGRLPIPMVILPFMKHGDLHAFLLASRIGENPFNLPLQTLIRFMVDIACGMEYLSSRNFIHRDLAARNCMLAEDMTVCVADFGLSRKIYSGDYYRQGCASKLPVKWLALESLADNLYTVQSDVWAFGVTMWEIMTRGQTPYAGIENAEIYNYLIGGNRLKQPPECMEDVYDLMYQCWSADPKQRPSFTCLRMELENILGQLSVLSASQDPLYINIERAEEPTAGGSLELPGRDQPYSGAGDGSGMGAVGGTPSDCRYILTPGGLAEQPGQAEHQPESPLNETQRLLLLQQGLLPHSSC
Method: as §1, §2

[6] = system: advanced/metastatic colorectal cancer; details: 25 mg, once a day, cited from earlier work
[7] = administration alone, 20 mg (n = 8)
[8] = co-administration with Compound A, 20 mg (n = 9)

In the case of `CCN(CC)CCN1CCc2[nH]c(/C=C3\C(=O)Nc4ccc(F)cc43)c(C)c2C1=O` [Compound B, famitinib malate], the ORR [1] is given as 36%, the “Css, max, Geomean (Geometric % CV)” value [2, 7] is given as 59.9 (44.4) ng/mL and the “Css, max, Mean ± SD” value [2, 7] is given as 0.0643 ± 0.0238 µg/mL. The “Css, min, Geomean (Geometric CV %)” value [2, 7] was 29.8 (56.6) ng/mL, the “Css, min, Mean ± SD” value [2, 7] was 0.0332 ± 0.0146 µg/mL and the “Tss, max, Median (Min, Max)” value [2, 7] was 6 (2, 8) h. The “exposure amount of Compound B compared to administration alone” value ([2]; co-administrated with Compound A) was “increased”, the “Css, max, Geomean (Geometric % CV)” value [2, 8] was 71.6 (24.3) ng/mL and the “Css, max, Mean ± SD” value [2, 8] was 0.0734 ± 0.0168 µg/mL. The “Css, min, Geomean (Geometric CV %)” value [2, 8] was 36.6 (28.8) ng/mL, the “Css, min, Mean ± SD” value [2, 8] was 0.038 ± 0.011 µg/mL and the “Tss, max, Median (Min, Max)” value [2, 8] was 6 (4, 10) h. It also gave an AUC ([2]; 20 mg, administration alone, 20 mg (n = 8), read-out: AUCss, Geomean (Geometric % CV)) of 1.09 µg·h/mL, an AUC ([2]; 20 mg, administration alone, 20 mg (n = 8), read-out: AUCss, Mean ± SD) of 1.19 ± 0.465 µg·h/mL and an AUC ([2]; co-administration with Compound A, 20 mg (n = 9), read-out: AUCss, Geomean (Geometric % CV)) of 1.33 µg·h/mL. It also gave an AUC ([2]; co-administration with Compound A, 20 mg (n = 9), read-out: AUCss, Mean ± SD) of 1.36 ± 0.3 µg·h/mL, an IC50 [3] of 0.00435 µM and an IC50 [4] of 0.0368 µM. It also gave an IC50 [5] of 0.326 µM.

For `CCN(CC)CCN1CCc2[nH]c(/C=C3\C(=O)Nc4ccc(F)cc43)c(C)c2C1=O` [famitinib], the “improvement of progression-free survival (PFS) compared to the placebo group” value ([6]; period of 42 days) is given as 1.3 months, the “HR (PFS vs placebo)” value [6] is given as 0.596 and the adverse events [6] is given as “adverse events are under control”. For the same compound, the “disease control rate (DCR)” value [6] was 59.8%, the “median survival (mOS)” value [6] was 7.5 months and the “objective remission rate (ORR)” value [6] was 2.2%.
